Measured values from US20260297542A1, “HERBICIDE RESISTANT PLANTS” (SYNGENTA CROP PROTECTION AG, priority 2023, published 2026).
Changes are numbered by the printed parent chain.

Key:
Test in all cases: E. coli hemG growth inhibition by herbicide, AtPPO1 variant
Format in all cases: cell-based
Details in all cases: read-out: percentage growth inhibition
AtPPO1 E111D = biological target: T1, AtPPO1 E111D (Arabidopsis thaliana, UniProt P55826, E111D)
T1 construct: expressed in transfected cells; host or cells: E. coli BL21(DE3) hemG (hemG replaced by CmR), pET24a plasmid
T1 sequence (P55826 35-537 E111D): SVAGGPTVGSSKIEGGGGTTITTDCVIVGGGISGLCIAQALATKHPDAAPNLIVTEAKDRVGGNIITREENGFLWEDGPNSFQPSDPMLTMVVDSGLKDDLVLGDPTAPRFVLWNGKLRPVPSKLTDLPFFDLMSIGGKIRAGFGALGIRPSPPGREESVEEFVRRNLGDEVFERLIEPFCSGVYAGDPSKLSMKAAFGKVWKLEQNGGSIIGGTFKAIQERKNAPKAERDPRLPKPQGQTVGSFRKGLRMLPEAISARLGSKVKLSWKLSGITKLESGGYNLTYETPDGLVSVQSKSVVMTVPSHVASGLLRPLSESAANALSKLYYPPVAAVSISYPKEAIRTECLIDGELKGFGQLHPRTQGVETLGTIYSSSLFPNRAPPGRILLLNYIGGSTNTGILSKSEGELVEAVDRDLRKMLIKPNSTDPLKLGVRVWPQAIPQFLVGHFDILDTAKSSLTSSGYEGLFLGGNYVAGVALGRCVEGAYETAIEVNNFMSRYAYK
How it was run: (§1)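 E. coli BL21(DE3) ΔhemG::CmR complemented by AtPPO1 variants (pET24a, T7, E. coli codon-optimised); TB + 0.1 mM IPTG, 1:100 inoculum; 6.25 ppm herbicide 0/E or 0.78 ppm herbicide B vs DMSO; 24 h, 37° C, 250 rpm; OD600 at 24 h → % growth inhibition.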

AtPPO1 T431F = biological target: T2, AtPPO1 T431F (Arabidopsis thaliana, UniProt P55826, T431F)
T2 construct: expressed in transfected cells; host or cells: E. coli BL21(DE3) hemG, pET24a plasmid
T2 sequence (P55826 35-537 T431F): T1 sequence (P55826 35-537 E111D) with D77E, T397F
How it was run: as §1

AtPPO1 Y361R = biological target: T3, AtPPO1 Y361R (Arabidopsis thaliana, UniProt P55826, Y361R)
T3 sequence (P55826 35-537 P363R/Y361R): T1 sequence (P55826 35-537 E111D) with D77E
How it was run: as §1

AtPPO1 A176L = biological target: T4, AtPPO1 A176L (Arabidopsis thaliana, UniProt P55826, A176L)
T4 construct: expressed in transfected cells; host or cells: E. coli BL21(DE3) hemG (hemG replaced by CmR), pET24a plasmid
T4 sequence (P55826 35-537 A176L): T1 sequence (P55826 35-537 E111D) with D77E, A142L
How it was run: as §1

SMILES: C#CCN1C(=O)C(F)(F)Oc2cc(F)c(-n3c(=O)n(C)c(=S)n(C)c3=O)cc21 [Herbicide B, trifludimoxazin]
- inhibition at 0.78 ppm (AtPPO1 E111D): 23%
- inhibition at 0.78 ppm (AtPPO1 T431F): 41%
- inhibition at 0.78 ppm (AtPPO1 Y361R): 36%
- inhibition at 0.78 ppm (AtPPO1 A176L): 35%

SMILES: CCOC(=O)[C@]1(C)CC(c2cc(-n3c(=O)n(C)c(=S)n(C)c3=O)c(F)cc2Cl)=NO1 [Herbicide D, ethyl (5S)-3-[2-chloro-5-(3,5-dimethyl-2,6-dioxo-4-thioxo-1,3,5-triazinan-1-yl)-4-fluoro-phenyl]-5-methyl-4H-isoxazole-5-carboxylate]
- inhibition at 6.25 ppm (AtPPO1 E111D): 30%
- inhibition at 6.25 ppm (AtPPO1 T431F): 0%
- inhibition at 6.25 ppm (AtPPO1 Y361R): 43%
- inhibition at 6.25 ppm (AtPPO1 A176L): 42%

SMILES: CC(C)N(C)S(=O)(=O)NC(=O)c1cc(-n2c(=O)cc(C(F)(F)F)n(C)c2=O)c(F)cc1Cl [Herbicide E, saflufenacil]
- inhibition at 6.25 ppm (AtPPO1 E111D): 69%
- inhibition at 6.25 ppm (AtPPO1 T431F): 37%
- inhibition at 6.25 ppm (AtPPO1 Y361R): 56%
- inhibition at 6.25 ppm (AtPPO1 A176L): 61%
